This experiment concerns IL-2 production. The experiment can be described thus: Inhibition of IL-2 production in PHA-activated Jurkat cells (ELISA). Type of experiment: cell-based. The settings on record: Homo sapiens, 20 h, PHA 2.5 μg/mL, IL-2 ELISA, values given as ranges. How it is done:
Jurkat cells were placed in a 96 well plate (0.5 million cells per well in 1% FBS medium) then a test compound of this invention was added at different concentrations. After 10 minutes, the cells were activated with PHA (final concentration 2.5 μg/mL) and incubated for 20 hours at 37° C. under CO2. The final volume was 200 μL. Following incubation, the cells were centrifuged and the supernatants collected and stored at −70° C. prior to assaying for IL-2 production. A commercial ELISA kit (IL-2 Eli-pair, Diaclone Research, Besancon, France) was used to detect production of IL-2, from which dose response curves were obtained. The IC50 value was calculated as the concentration at which 50% of maximum IL-2 production after stimulation was inhibited versus a non-stimulation control. Inhibition of other cytokines, such as IL-4, IL-5, IL-13, GM-CSF, TNF-α, and INF-γ, can be tested in a similar manner using a commercially available ELISA kit for each cytokine.

As usually defined, the IC50 is the point on the concentration scale where inhibition reaches its midpoint. On to `O=C(Nc1c(F)cccc1F)c1cc2c(s1)-c1cc(Br)ccc1CCC2` [Compound 1], for which the IC50 is ≤ 30 nM. In the case of `O=C(Nc1c(F)cccc1F)c1cc2c(s1)-c1cc(-c3cccnc3)ccc1CCC2` [Compound 2] it was ≤ 30 nM.

`COc1ccc2c(c1)CCCc1sc(NC(=O)c3c(F)cccc3F)nc1-2` [Compound 42]: the IC50 is > 1000 nM. Take `O=C(Nc1nc2c(s1)CCCc1ccc(Br)cc1-2)c1c(F)cccc1F` [Compound 43]: the IC50 is > 1000 nM. With `O=C(Nc1c(F)cccc1F)c1cnc2c(c1)CCCc1ccc(-c3cccnc3)cc1-2` [Compound 45], the IC50 lay in the range of 100 to 250 nM. Take `Cc1nc2c(cc1C(=O)Nc1c(F)cccc1F)CCCc1ccc(-c3cccnc3)cc1-2` [Compound 48]: the half-maximal inhibitory concentration (IC50) is 100 to 250 nM.

With `O=C(Nc1cnc2c(n1)CCCC1=C2CN(c2nccs2)CC1)c1c(F)cccc1F` [Compound 91], the 50% inhibitory concentration (IC50) was 30 to 100 nM. In the case of `O=C(Nc1c(F)cccc1F)c1nc2c(s1)-c1cc(-n3ccnc3)ccc1CCC2` [Compound 113] it was ≤ 30 nM. `Cc1nccn1-c1ccc2c(c1)-c1sc(C(=O)Nc3c(F)cccc3F)nc1CCC2` [Compound 115] yielded an IC50 of 250 to 500 nM. In the case of `Cc1cn(-c2ccc3c(c2)-c2sc(C(=O)Nc4c(F)cccc4F)nc2CCC3)cn1` [Compound 117] it was 30 to 100 nM. The value for `O=C(Nc1c(F)cccc1F)c1nc2c(s1)-c1cc(-n3cnnc3)ccc1CCC2` [Compound 121] was 30 to 100 nM. The compound `O=C(Nc1ccc(F)cc1F)c1nc2c(s1)-c1cc(-n3ccnc3)ccc1CCC2` [Compound 122] yielded an IC50 of 100 to 250 nM. The value for `O=C(Nc1ccc(F)c(F)c1F)c1nc2c(s1)-c1cc(-n3ccnc3)ccc1CCC2` [Compound 124] was 250 to 500 nM; that for `O=C(Nc1c(F)ccc(F)c1F)c1nc2c(s1)-c1cc(-n3ccnc3)ccc1CCC2` [Compound 126] was ≤ 30 nM. For the compound `O=C(Nc1c(F)cc(F)cc1F)c1nc2c(s1)-c1cc(-n3ccnc3)ccc1CCC2` [Compound 130], the half-inhibitory concentration (IC50) fell in the range of 30 to 100 nM. With `Cc1cnccc1NC(=O)c1nc2c(s1)-c1cc(-n3ccnc3)ccc1CCC2` [Compound 132], the concentration for half-maximal inhibition (IC50) lay within 100 to 250 nM. The value for `CCc1cn(-c2ccc3c(c2)-c2ncc(NC(=O)c4c(F)cccc4F)nc2CCC3)cn1` [Compound 134] was ≤ 30 nM.

The values above are taken from patent publication US20110052643A1, “COMPOUNDS FOR INFLAMMATION AND IMMUNE-RELATED USES” (Synta Pharmaceuticals Corp., priority 2008, published 2011).
